Experimental data published in patent US10045983B2, “Heteroaryl pyridone and aza-pyrodine compounds” (Genentech, Inc., priority 2011, dated 2018).

Experiment: CD69 Whole Blood Assay (CD69 Hu Blood FACS)
Type: cell-based, human
Conditions: Lymphocyte; human whole blood, anti-IgM activated B lymphocytes, FACS; IC70; Table 1; read-out: CD69 Hu Blood FACS IC70
How it was run: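 Compounds tested for blocking B-cell CD69 induction by flow cytometry in human whole blood, with activation via anti-human IgM goat F(ab′)2 crosslinking of surface IgM.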

Question: For `CN1CCN(c2ccc(Nc3cc(-c4cncc(N5CCn6c(cc7c6CCCC7)C5=O)c4CO)cn(C)c3=O)nc2)CC1` [Example 102, 2-(4-(Hydroxymethyl)-5-(1-methyl-5-(5-(4-methylpiperazin-1-yl)pyridin-2-ylamino)-6-oxo-1,6-dihydropyridin-3-yl)pyridin-3-yl)-3,4,6,7,8,9-hexahydropyrazino[1,2-a]indol-1(2H)-one], which IC70 is on record?
Answer: The IC70 was 132 nM.

Question: Which IC70 does the source give for `C[C@H]1CN(C2COC2)CCN1c1ccc(Nc2cc(-c3ccnc(N4CCn5c(cc6c5[C@@H]5CC[C@H]6C5)C4=O)c3CO)cn(C)c2=O)nc1` [Example 174, (1R,11S)-6-[3-(Hydroxymethyl)-4-[1-methyl-5-({5-[(2S)-2-methyl-4-(oxetan-3-yl)piperazin-1-yl]pyridin-2-yl}amino)-6-oxo-1,6-dihydropyridin-3-yl]pyridin-2-yl]-3,6-diazatetracyclo[9.2.1.0^2,10.0^3,8]tetradeca-2(10),8-dien-7-one] here?
Answer: The IC70 was 101 nM.

Question: With `Cc1cc(Nc2cc(-c3ccnc(N4CCn5c(cc6c5CC(C)(C)C6)C4=O)c3CO)cn(C)c2=O)ncn1` [Example 180, 2-[3′-Hydroxymethyl-1-methyl-5-(6-methyl-pyrimidin-4-ylamino)-6-oxo-1,6-dihydro-[3,4′]bipyridinyl-2′-yl]-7,7-dimethyl-3,4,7,8-tetrahydro-2H,6H-cyclopenta[4,5]pyrrolo[1,2-a]pyrazin-1-one] as the molecule, how does the IC70 read?
Answer: Its IC70 is 245 nM.

Question: With `CC[C@H]1CN(C2COC2)CCN1c1ccc(Nc2cc(-c3ccnc(N4CCn5c(cc6c5CC(C)(C)C6)C4=O)c3CO)cn(C)c2=O)nc1` [Example 164, 2-{5-[5-((S)-2-Ethyl-4-oxetan-3-yl-piperazin-1-yl)-pyridin-2-ylamino]-3′-hydroxymethyl-1-methyl-6-oxo-1,6-dihydro-[3,4′]bipyridinyl-2′-yl}-7,7-dimethyl-3,4,7,8-tetrahydro-2H,6H-cyclopenta[4,5]pyrrolo[1,2-a]pyrazin-1-one] as the molecule, how does the IC70 read?
Answer: The IC70 was 29 nM.

Question: Which IC70 does the source give for `CCN1CCn2nc(Nc3cc(-c4ccnc(N5CCn6c(cc7c6CCCC7)C5=O)c4CO)cn(C)c3=O)cc2C1` [Example 177, 2-(4-(5-(5-ethyl-4,5,6,7-tetrahydropyrazolo[1,5-a]pyrazin-2-ylamino)-1-methyl-6-oxo-1,6-dihydropyridin-3-yl)-3-(hydroxymethyl)pyridin-2-yl)-3,4,6,7,8,9-hexahydropyrazino[1,2-a]indol-1(2H)-one] here?
Answer: Its IC70 is 107 nM.

Question: For `Cn1cc(-c2ccnc(N3CCn4c5c(c(F)c4C3=O)CCCC5)c2CO)cc(Nc2ccccn2)c1=O` [Example 183, 10-fluoro-2-(3-(hydroxymethyl)-4-(1-methyl-6-oxo-5-(pyridin-2-ylamino)-1,6-dihydropyridin-3-yl)pyridin-2-yl)-3,4,6,7,8,9-hexahydropyrazino[1,2-a]indol-1(2H)-one], which IC70 is on record?
Answer: Its IC70 is 906 nM.

Question: Which IC70 does the source give for `Cn1cc(-c2ccnc(-n3ncc4c5c(sc4c3=O)CCCC5)c2CO)cc(Nc2ccncn2)c1=O` [Example 182, 3-[3′-Hydroxymethyl-1-methyl-6-oxo-5-(pyrimidin-4-ylamino)-1,6-dihydro-[3,4′]bipyridinyl-2′-yl]-6,7,8,9-tetrahydro-3H-benzo[4,5]thieno[2,3-d]pyridazin-4-one] here?
Answer: The IC70 was 813 nM.

Question: Which IC70 does the source give for `C[C@@H]1CN(c2ccc(Nc3cc(-c4ccnc(-n5ncc6c7c(sc6c5=O)CCCC7)c4CO)cn(C)c3=O)nc2)[C@@H](C)CN1C1COC1` [Example 159, 3-{5-[5-((2S, 5R)-2,5-Dimethyl-4-oxetan-3-yl-piperazin-1-yl)-pyridin-2-ylamino]-3′-hydroxymethyl-1-methyl-6-oxo-1,6-dihydro-[3,4′]bipyridinyl-2′-yl}-6,7,8,9-tetrahydro-3H-benzo[4,5]thieno[2,3-d]pyridazin-4-one] here?
Answer: Its IC70 is 82 nM.

Same assay, conditions: Lymphocyte; human whole blood, anti-IgM activated B lymphocytes, FACS; IC70; Table 2 (unit inferred); read-out: CD69 Hu Blood FACS (IC70)

Question: With `C[C@H]1CN(C2COC2)CCN1c1ccc(Nc2cc(-c3ccnc(N4CCn5c(cc6c5CC(C)(C)C6)C4=O)c3CO)c[nH]c2=O)nc1` [Example 271, 3-[3-(hydroxymethyl)-4-[5-[[5-[(2S)-2-methyl-4-(oxetan-3-yl)piperazin-1-yl]-2-pyridyl]amino]-6-oxo-1H-pyridin-3-yl]-2-pyridyl]-7,7-dimethyl-1,2,6,8-tetrahydrocyclopenta[3,4]pyrrolo[3,5-b]pyrazin-4-one] as the molecule, how does the IC70 read?
Answer: Its IC70 is 24.5 nM.

Question: With `C[C@H]1CN(C2COC2)CCN1c1ccc(Nc2cc(-c3ccnc(N4CCn5c6c(c(F)c5C4=O)CCCC6)c3CO)nn(C)c2=O)nc1` [Example 231, 10-fluoro-2-[3-(hydroxymethyl)-4-[1-methyl-5-[[5-[(2S)-2-methyl-4-(oxetan-3-yl)piperazin-1-yl]-2-pyridyl]amino]-6-oxo-pyridazin-3-yl]-2-pyridyl]-3,4,6,7,8,9-hexahydropyrazino[1,2-a]indol-1-one] as the molecule, how does the IC70 read?
Answer: The IC70 was 62.4 nM.

Question: With `Cn1cc(-c2ccnc(N3CCc4c(c(F)c5n4CCCC5)C3=O)c2CO)cc(Nc2cc3n(n2)CCN(C2COC2)C3)c1=O` [Example 284, 10-fluoro-2-[3-(hydroxymethyl)-4-[1-methyl-5-[[5-(oxetan-3-yl)-6,7-dihydro-4H-pyrazolo[1,5-a]pyrazin-2-yl]amino]-6-oxo-3-pyridyl]-2-pyridyl]-3,4,6,7,8,9-hexahydropyrido[3,4-b]indolizin-1-one] as the molecule, how does the IC70 read?
Answer: The IC70 was 131 nM.

Question: With `Cn1cc(-c2ccnc(N3CCn4c(cc5c4CC(C)(C)C5)C3=O)c2CO)cc(Nc2cn(C3COC3)cn2)c1=O` [Example 285, 3-[3-(hydroxymethyl)-4-[1-methyl-5-[[1-(oxetan-3-yl)imidazol-4-yl]amino]-6-oxo-3-pyridyl]-2-pyridyl]-7,7-dimethyl-1,2,6,8-tetrahydrocyclopenta[3,4]pyrrolo[3,5-b]pyrazin-4-one] as the molecule, how does the IC70 read?
Answer: The IC70 was 175 nM.

Question: Which IC70 does the source give for `Cn1cc(-c2ccnc(N3CCn4c(cc5c4CC(C)(C)C5)C3=O)c2CO)cc(Nc2ccn3ccnc3n2)c1=O` [Example 199, 3-[3-(hydroxymethyl)-4-[5-(imidazo[1,2-a]pyrimidin-7-ylamino)-1-methyl-6-oxo-3-pyridyl]-2-pyridyl]-7,7-dimethyl-1,2,6,8-tetrahydrocyclopenta[3,4]pyrrolo[3,5-b]pyrazin-4-one] here?
Answer: Its IC70 is 934 nM.

Question: For `C[C@H]1CN(C2COC2)CCN1c1ccc(Nc2cc(-c3ccnc(-n4ncc5c(cc6n5CCCC6)c4=O)c3CO)cn(C)c2=O)nc1` [Example 193, 2-[3-(hydroxymethyl)-4-[1-methyl-5-[[5-[(2S)-2-methyl-4-(oxetan-3-yl)piperazin-1-yl]-2-pyridyl]amino]-6-oxo-3-pyridyl]-2-pyridyl]-6,7,8,9-tetrahydropyridazino[4,5-b]indolizin-1-one], which IC70 is on record?
Answer: Its IC70 is 99.5 nM.

Question: With `Cn1cnc(Nc2cc(-c3ccnc(N4CCn5c(cc6c5CC(C)(C)C6)C4=O)c3CO)cn(C)c2=O)c1` [Example 268, 3-[3-(hydroxymethyl)-4-[1-methyl-5-[(1-methylimidazol-4-yl)amino]-6-oxo-3-pyridyl]-2-pyridyl]-7,7-dimethyl-1,2,6,8-tetrahydrocyclopenta[3,4]pyrrolo[3,5-b]pyrazin-4-one] as the molecule, how does the IC70 read?
Answer: The IC70 was 212 nM.

Question: Which IC70 does the source give for `C[C@H]1CN(C2COC2)CCN1c1cnc(Nc2cc(-c3ccnc(N4CCn5c(cc6c5CC(C)(C)C6)C4=O)c3CO)cn(C)c2=O)cn1` [Example 235, 3-[3-(hydroxymethyl)-4-[1-methyl-5-[[5-[(2S)-2-methyl-4-(oxetan-3-yl)piperazin-1-yl]pyrazin-2-yl]amino]-6-oxo-3-pyridyl]-2-pyridyl]-7,7-dimethyl-1,2,6,8-tetrahydrocyclopenta[3,4]pyrrolo[3,5-b]pyrazin-4-one] here?
Answer: Its IC70 is 112 nM.

Question: Which IC70 does the source give for `Cn1cc(-c2ccnc(N3CCn4c(cc5c4CC(C)(C)C5)C3=O)c2CO)cc(Nc2cc3n(n2)CCN(CCC#N)C3)c1=O` [Example 338, 3-[2-[[5-[2-(7,7-dimethyl-4-oxo-1,2,6,8-tetrahydrocyclopenta[3,4]pyrrolo[3,5-b]pyrazin-3-yl)-3-(hydroxymethyl)-4-pyridyl]-1-methyl-2-oxo-3-pyridyl]amino]-6,7-dihydro-4H-pyrazolo[155-a]pyrazin-5-yl]propanenitrile] here?
Answer: The IC70 was 17.8 nM.

Question: Which IC70 does the source give for `COCc1cc(Nc2cc(-c3ccnc(N4CCn5c(cc6c5CC(C)(C)C6)C4=O)c3CO)cn(C)c2=O)nn1C` [Example 316, 3-[3-(hydroxymethyl)-4-[5-[[5-(methoxymethyl)-1-methyl-pyrazol-3-yl]amino]-1-methyl-6-oxo-3-pyridyl]-2-pyridyl]-7,7-dimethyl-1,2,6,8-tetrahydrocyclopenta[3,4]pyrrolo[3,5-b]pyrazin-4-one] here?
Answer: The IC70 was 20.2 nM.

Question: Which IC70 does the source give for `CN1CCn2nc(Nc3cc(-c4ccnc(N5CCn6c(cc7c6CCCC7)C5=O)c4CO)cn(C)c3=O)nc2C1` [Example 270, 2-[3-(hydroxymethyl)-4-[1-methyl-5-[(7-methyl-6,8-dihydro-5H-[1,2,4]triazolo[1,5-a]pyrazin-2-yl)amino]-6-oxo-3-pyridyl]-2-pyridyl]-3,4,6,7,8,9-hexahydropyrazino[1,2-a]indol-1-one] here?
Answer: Its IC70 is 5900 nM.

Question: Which IC70 does the source give for `Cc1nc(Nc2cc(-c3ccnc(N4CCn5c(cc6c5CC(C)(C)C6)C4=O)c3CO)cn(C)c2=O)cn1C` [Example 337, 3-[4-[5-[(1,2-dimethylimidazol-4-yl)amino]-1-methyl-6-oxo-3-pyridyl]-3-(hydroxymethyl)-2-pyridyl]-7,7-dimethyl-1,2,6,8-tetrahydrocyclopenta[3,4]pyrrolo[3,5-b]pyrazin-4-one] here?
Answer: The IC70 was 613 nM.

Question: Which IC70 does the source give for `Cn1cc(-c2ccnc(N3CCn4c(cc5c4CC(C)(C)C5)C3=O)c2CO)cc(Nc2nc3c(s2)CNCC3)c1=O` [Example 233, 3-[3-(hydroxymethyl)-4-[1-methyl-6-oxo-5-(4,5,6,7-tetrahydrothiazolo[5,4-c]pyridin-2-ylamino)-3-pyridyl]-2-pyridyl]-7,7-dimethyl-1,2,6,8-tetrahydrocyclopenta[3,4]pyrrolo[3,5-b]pyrazin-4-one] here?
Answer: Its IC70 is 65.7 nM.

Question: With `Cn1nc(Nc2cc(-c3ccnc(N4CCn5c(cc6c5CC(C)(C)C6)C4=O)c3CO)cn(C)c2=O)cc1C(=O)N1CCCC1` [Example 315, 3-[3-(hydroxymethyl)-4-[1-methyl-5-[[1-methyl-5-(pyrrolidine-1-carbonyl)pyrazol-3-yl]amino]-6-oxo-3-pyridyl]-2-pyridyl]-7,7-dimethyl-1,2,6,8-tetrahydrocyclopenta[3,4]pyrrolo[3,5-b]pyrazin-4-one] as the molecule, how does the IC70 read?
Answer: The IC70 was 15 nM.
